The supplement of paper PMC13380429

Key:
Settings in all cases: 72 h
Calu-3 [1] = experiment: drug sensitivity score (DSS) for viability; higher = more toxic; extreme values may be limits of the assay
Vero E6 [2] = experiment: as above
U2OS [3] = experiment: as above
Caco-2 [4] = experiment: as above
HepG2 [5] = experiment: as above
Calu-3 [6] = experiment: cell viability relative to DMSO; higher = less toxic
Vero E6 [7] = experiment: as above
U2OS [8] = experiment: as above
Caco-2 [9] = experiment: as above
HepG2 [10] = experiment: as above
Calu-3 [11] = experiment: relative viability EC50 (midpoint between 100% and the lowest measured viability); higher = less toxic
Vero E6 [12] = experiment: as above
U2OS [13] = experiment: as above
Caco-2 [14] = experiment: as above
HepG2 [15] = experiment: as above

| SMILES | drug sensitivity score (Calu-3 [1]) | drug sensitivity score (Vero E6 [2]) | drug sensitivity score (U2OS [3]) | drug sensitivity score (Caco-2 [4]) | drug sensitivity score (HepG2 [5]) | cell viability (Calu-3 [6]; 1 nM) [%] | cell viability (Calu-3 [6]; 10 nM) [%] | cell viability (Calu-3 [6]; 100 nM) [%] | cell viability (Calu-3 [6]; 1000 nM) [%] | cell viability (Calu-3 [6]; 10000 nM) [%] | cell viability (Vero E6 [7]; 1 nM) [%] | cell viability (Vero E6 [7]; 10 nM) [%] | cell viability (Vero E6 [7]; 100 nM) [%] | cell viability (Vero E6 [7]; 1000 nM) [%] | cell viability (Vero E6 [7]; 10000 nM) [%] | cell viability (U2OS [8]; 1 nM) [%] | cell viability (U2OS [8]; 10 nM) [%] | cell viability (U2OS [8]; 100 nM) [%] | cell viability (U2OS [8]; 1000 nM) [%] | cell viability (U2OS [8]; 10000 nM) [%] | cell viability (Caco-2 [9]; 1 nM) [%] | cell viability (Caco-2 [9]; 10 nM) [%] | cell viability (Caco-2 [9]; 100 nM) [%] | cell viability (Caco-2 [9]; 1000 nM) [%] | cell viability (Caco-2 [9]; 10000 nM) [%] | cell viability (HepG2 [10]; 1 nM) [%] | cell viability (HepG2 [10]; 10 nM) [%] | cell viability (HepG2 [10]; 100 nM) [%] | cell viability (HepG2 [10]; 1000 nM) [%] | cell viability (HepG2 [10]; 10000 nM) [%] | relative viability EC50 (Calu-3 [11]) [µM] | relative viability EC50 (Vero E6 [12]) [µM] | relative viability EC50 (U2OS [13]) [µM] | relative viability EC50 (Caco-2 [14]) [µM] | relative viability EC50 (HepG2 [15]) [µM] |
| --- | --- | --- | --- | --- | --- | --- | --- | --- | --- | --- | --- | --- | --- | --- | --- | --- | --- | --- | --- | --- | --- | --- | --- | --- | --- | --- | --- | --- | --- | --- | --- | --- | --- | --- | --- |
| Nc1ncnc2c1c(COc1cccc(Cl)c1)nn2C1CCOCC1 | 0.6 | 0 | 0 | 0 | 0 | 95.4 | 104 | 95.3 | 97.2 | 84.2 | 96.5 | 96.5 | 97.6 | 89.3 | 112 | 92.5 | 98.1 | 94.9 | 96.9 | 96.4 | 89.2 | 99.2 | 99.7 | 100 | 91.3 | 91.3 | 89.1 | 109 | 91.8 | 99.4 | > 10 | > 10 | > 10 | > 10 | > 10 |
| O=C(NO)c1cnc(N2CCN(S(=O)(=O)c3ccc4ccccc4c3)CC2)nc1 | 7.7 | 8.8 | 9.4 | 11.2 | 8.9 | 107 | 103 | 98.9 | 75.5 | 24.1 | 102 | 97.5 | 100 | 79.2 | -0.1 | 97.9 | 98.4 | 94.5 | 69.3 | 4.2 | 104 | 128 | 84.7 | 51.8 | 4.3 | 107 | 96.8 | 91.5 | 65.6 | 11.7 | 1.34 | 1.71 | 1.4 | 0.894 | 1.29 |
| O=C(Nc1c(-c2cccs2)nc2ccccn12)c1ccc(Cl)cc1 | 0 | 0 | 0 | 0 | 0 | 106 | 104 | 103 | 86.9 | 107 | 96.7 | 103 | 96.6 | 95.1 | 92.9 | 104 | 96.7 | 103 | 99.3 | 103 | 99 | 95 | 104 | 97.5 | 102 | 98.9 | 95.3 | 99 | 101 | 91.4 | > 10 | > 10 | > 10 | > 10 | > 10 |
| O=C(O)[C@H](Cc1ccccc1)NCc1ccc(Cl)cc1 | 0 | 0 | 0 | 0 | 0 | 92.8 | 91.5 | 93.8 | 98 | 92.5 | 99.8 | 102 | 92.9 | 99.4 | 101 | 95.2 | 98.7 | 91 | 98.3 | 94.5 | 107 | 99.6 | 106 | 101 | 102 | 95.6 | 101 | 97.1 | 93.3 | 103 | > 10 | > 10 | > 10 | > 10 | > 10 |
| O=C(O)c1ccc2c(c1)C(=O)N(c1cccc(Oc3ccc([N+](=O)[O-])cc3)c1)C2=O | 0 | 0 | 0 | 0 | 0 | 94.8 | 96.5 | 104 | 96.8 | 99 | 94.1 | 99.7 | 98.7 | 90.1 | 100 | 95.5 | 99 | 94.6 | 99 | 94.3 | 92.5 | 102 | 98 | 94.7 | 100 | 104 | 94.8 | 95.5 | 92.9 | 103 | > 10 | > 10 | > 10 | > 10 | > 10 |
| O=C(c1c2ccccc2cc2ccccc12)N1CCC(N2CCC[C@@H](C(=O)N3CCOCC3)C2)CC1 | 0 | 0 | 0 | 0 | 1.1 | 100 | 99.8 | 105 | 113 | 117 | 97.9 | 93.4 | 93.8 | 89.7 | 99.8 | 92.7 | 98.9 | 102 | 103 | 101 | 84.6 | 100 | 87.3 | 94.3 | 87.2 | 93.7 | 93.2 | 96.9 | 85.3 | 82.3 | > 10 | > 10 | > 10 | > 10 | > 10 |
| O=C1NC(=O)/C(=C/c2ccc(-c3ccc(F)cc3O)o2)S1 | 1 | 0.5 | 0 | 0.9 | 0 | 116 | 109 | 102 | 98.2 | 77 | 102 | 100 | 99.3 | 100 | 81.2 | 103 | 101 | 91 | 104 | 91.2 | 94 | 103 | 96.3 | 105 | 72.5 | 96.2 | 96.2 | 95.9 | 96.6 | 106 | > 10 | > 10 | > 10 | – | > 10 |
